Read-outs that look alike come from different tables or passages of the source. Bridge positions count the residues as written; N and C are the ends. Square brackets hold non-standard residues; d marks the D form. Peptide text beside a SMILES is read from it. Abu = CC[C@H](N)C(=O)O
Experiments:
[1] = molecular target: D. immitis iPGM (Dirofilaria immitis, UniProt F4ZE01); test: biochemical
[2] = molecular target: T1, E. coli iPGM (Escherichia coli, UniProt P37689); test: biochemical; conditions: […]
[3] = molecular target: T1, E. coli iPGM; test: SPR binding kinetics and saturation binding, biotinylated iPGM on Biotin CAPture chip (Biacore S200); conditions: for koff / kon: LoQ = limit of quantitation; for Kd: unit inferred
[4] = molecular target: T2, B. malayi iPGM (Brugia malayi, UniProt Q4VWF8); test: biochemical; type: binding; conditions: for Kd: Supplementary Table 5, SPR, B.m. iPGM, unit inferred
T2 sequence (Q4VWF8 1-515): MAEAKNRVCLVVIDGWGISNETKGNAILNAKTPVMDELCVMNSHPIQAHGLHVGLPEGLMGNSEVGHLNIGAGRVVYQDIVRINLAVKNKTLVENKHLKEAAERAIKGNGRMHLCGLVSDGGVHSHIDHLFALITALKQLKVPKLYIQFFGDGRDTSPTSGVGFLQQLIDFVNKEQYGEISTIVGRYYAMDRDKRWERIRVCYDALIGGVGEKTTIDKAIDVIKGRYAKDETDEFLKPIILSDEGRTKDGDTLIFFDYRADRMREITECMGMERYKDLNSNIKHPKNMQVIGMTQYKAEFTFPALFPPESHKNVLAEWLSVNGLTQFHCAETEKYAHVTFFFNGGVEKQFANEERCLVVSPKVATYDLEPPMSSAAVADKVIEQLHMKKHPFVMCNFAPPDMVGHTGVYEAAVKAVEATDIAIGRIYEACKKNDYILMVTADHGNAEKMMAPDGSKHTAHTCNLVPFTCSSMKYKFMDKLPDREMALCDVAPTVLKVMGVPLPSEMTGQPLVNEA

[5] = molecular target: C. elegans iPGM (Caenorhabditis elegans, UniProt G5EFZ1); test: SPR binding kinetics and saturation binding, biotinylated iPGM on Biotin CAPture chip (Biacore S200)
[6] = Supplementary Table 5, SPR, E.c. iPGM
[7] = SPR, 25 °C, global fit to 1:1 binding model

COc1ccc(C[C@H](NC(=O)[C@H](CC(C)C)NC(=O)[C@H](Cc2ccc(O)cc2)NC(=O)[C@@H]2CSCC(=O)N[C@H](Cc3ccc(O)cc3)C(=O)N[C@@H](CC(=O)O)C(=O)N[C@@H](Cc3ccc(O)cc3)C(=O)N3CCC[C@H]3C(=O)NCC(=O)N[C@@H](CC(=O)O)C(=O)N[C@@H](Cc3ccc(O)cc3)C(=O)N2)C(N)=O)cc1 [Ce-2d Y11(4OMe)F]
IC50 ([1]; Di iPGM Ave IC50 (M)): 6.05e-08 M
IC50 [2]: 12800 nM

CC(C)C[C@H](NC(=O)[C@H](Cc1ccc(O)cc1)NC(=O)[C@@H]1CSCC(=O)N[C@H](Cc2ccc(O)cc2)C(=O)N[C@@H](CC(=O)O)C(=O)N[C@@H](Cc2ccc(O)cc2)C(=O)N2CCC[C@H]2C(=O)NCC(=O)N[C@@H](CC(=O)O)C(=O)N[C@@H](Cc2ccccc2)C(=O)N1)C(=O)N[C@@H](Cc1ccc(O)cc1)C(=O)NCC(=O)N[C@H](C(=O)N[C@@H](CS)C(N)=O)[C@@H](C)O [Ce-2 Y7F]
IC50 ([1]; Di iPGM Ave IC50 (M)): 1.73e-09 M
IC50 ([1]; IC50 (M)): 1.78e-09 M
IC50 [2]: 1170 nM

CC(C)C[C@H](NC(=O)[C@H](Cc1ccc(O)cc1)NC(=O)[C@@H]1CSCC(=O)N[C@H](Cc2ccc(O)cc2)C(=O)N[C@@H](CC(=O)O)C(=O)N[C@@H](Cc2ccc(O)cc2)C(=O)N2CCC[C@H]2C(=O)NCC(=O)N[C@@H](CC(=O)O)C(=O)N[C@@H](Cc2ccc(O)cc2)C(=O)N1)C(=O)N[C@@H](Cc1ccc(O)cc1)C(=O)NCC(=O)N[C@@H](CO)C(=O)N[C@@H](CS)C(N)=O [Ce-2 Thr13Ser]
koff ([3]; SPR, 25 °C, global fit to 1:1 binding model, read-out: koff): 0.00033 s⁻¹
kon ([3]; SPR, 25 °C, global fit to 1:1 binding model, read-out: kon): 240000 M⁻¹ s⁻¹
koff [3, 6]: 0.000333 s⁻¹
kon [3, 6]: 236000 M⁻¹ s⁻¹
Kd [3, 6]: 1.31 nM
koff [4]: 7.84e-05 s⁻¹
kon [4]: 1.47e+06 M⁻¹ s⁻¹
Kd [4]: 0.0853 nM
koff [4, 7]: 7.8e-05 s⁻¹
kon [4, 7]: 1.6e+06 M⁻¹ s⁻¹
IC50 ([1]; IC50 (M)): 2.56e-09 M
Kd [5]: 0.0287 nM
koff [5]: 7.83e-05 s⁻¹
kon [5]: 2.86e+06 M⁻¹ s⁻¹
koff [5, 7]: 0.00017 s⁻¹
kon [5, 7]: 2.9e+06 M⁻¹ s⁻¹

CC(C)C[C@H](NC(=O)[C@H](Cc1ccc(O)cc1)NC(=O)[C@@H]1CSCC(=O)N[C@H](Cc2ccc(O)cc2)C(=O)N[C@@H](CC(=O)O)C(=O)N[C@@H](Cc2ccc(O)cc2)C(=O)N2CCC[C@H]2C(=O)NCC(=O)N[C@@H](CC(=O)O)C(=O)N[C@@H](Cc2ccc(O)cc2)C(=O)N1)C(=O)N[C@@H](Cc1ccc(O)cc1)C(=O)NCC(=O)NCC(=O)N[C@@H](Cc1c[nH]cn1)C(N)=O [Ce-2 T13G, C14H]
IC50 ([1]; Di iPGM Ave IC50 (M)): 1.12e-07 M
IC50 [2]: 12700 nM

CC[C@@H]1NC(=O)[C@@H](Cc2ccc(O)cc2)NC(=O)CSC[C@@H](C(=O)N[C@@H](Cc2ccc(O)cc2)C(=O)N[C@@H](CC(C)C)C(=O)N[C@@H](Cc2ccc(O)cc2)C(=O)NCC(=O)N[C@H](C(=O)N[C@@H](CS)C(N)=O)[C@@H](C)O)NC(=O)[C@H](Cc2ccc(O)cc2)NC(=O)[C@H](CC(=O)O)NC(=O)CNC(=O)[C@@H]2CCCN2C(=O)[C@H](Cc2ccc(O)cc2)NC1=O [Ce-2 D2Abu] ({CH2CO}-[dY][Abu]YPGDYCYLYGTC-NH2; thioether N-8)
koff [3, 6]: 0.00202 s⁻¹
kon [3, 6]: 270000 M⁻¹ s⁻¹
Kd [3, 6]: 25.4 nM
koff [4]: 0.000125 s⁻¹
kon [4]: 561000 M⁻¹ s⁻¹
Kd [4]: 0.223 nM
IC50 ([1]; Di iPGM Ave IC50 (M)): 1.52e-09 M
IC50 ([1]; IC50 (M)): 1.57e-09 M
Kd [5]: 0.0157 nM
koff [5]: 4.55e-05 s⁻¹
kon [5]: 3.04e+06 M⁻¹ s⁻¹

CC(C)C[C@H](NC(=O)[C@H](Cc1ccc(O)cc1)NC(=O)[C@@H]1CSCC(=O)N[C@H](Cc2ccc(O)cc2)C(=O)N[C@@H](CC(N)=O)C(=O)N[C@@H](Cc2ccc(O)cc2)C(=O)N2CCC[C@H]2C(=O)NCC(=O)N[C@@H](CC(=O)O)C(=O)N[C@@H](Cc2ccc(O)cc2)C(=O)N1)C(=O)N[C@@H](Cc1ccc(O)cc1)C(=O)NCC(=O)N[C@H](C(=O)N[C@@H](CS)C(N)=O)[C@@H](C)O [Ce-2 D2N] ({CH2CO}-[dY]NYPGDYCYLYGTC-NH2; thioether N-8)
IC50 ([1]; Di iPGM Ave IC50 (M)): 1.99e-09 M
IC50 ([1]; IC50 (M)): 1.87e-09 M
IC50 [2]: 170 nM

CC(C)C[C@H](NC(=O)[C@H](Cc1ccccc1)NC(=O)[C@@H]1CSCC(=O)N[C@H](Cc2ccc(O)cc2)C(=O)N[C@@H](CC(=O)O)C(=O)N[C@@H](Cc2ccc(O)cc2)C(=O)N2CCC[C@H]2C(=O)NCC(=O)N[C@@H](CC(=O)O)C(=O)N[C@@H](Cc2ccccc2)C(=O)N1)C(=O)N[C@@H](Cc1ccc(O)cc1)C(=O)NCC(=O)N[C@H](C(=O)N[C@@H](CS)C(N)=O)[C@@H](C)O [Ce-2 Y7F, Y9F] ({CH2CO}-[dY]DYPGDFCFLYGTC-NH2; thioether N-8)
IC50 ([1]; Di iPGM Ave IC50 (M)): 2.07e-08 M
IC50 ([1]; IC50 (M)): 2.03e-08 M
IC50 [2]: 4460 nM

CC(C)C[C@H](NC(=O)[C@H](Cc1ccc(O)cc1)NC(=O)[C@@H]1CSCC(=O)N[C@H](Cc2ccc(O)cc2)C(=O)N[C@@H](CC(=O)O)C(=O)N[C@@H](Cc2ccc(O)cc2)C(=O)N2CCC[C@H]2C(=O)NCC(=O)N[C@@H](CC(=O)O)C(=O)N[C@@H](Cc2ccc(F)cc2)C(=O)N1)C(=O)N[C@@H](Cc1ccc(O)cc1)C(=O)NCC(=O)N[C@H](C(=O)N[C@@H](CS)C(N)=O)[C@@H](C)O [Ce-2 Y7(4F)F]
IC50 ([1]; Di iPGM Ave IC50 (M)): 1.67e-09 M
IC50 [2]: 12800 nM
